Data on 15 molecules can be found in patent EP0085842A1, “Antimycosic agents” (BAYER AG, priority 1982, dated 1983).

Each structure is given as a SMILES string. Values after ≈ are worked out from the molar mass of the structure shown. Some results are limits rather than exact numbers.

Experiment [1] deals with Trichophyton mentagr. In words: Antimycotic in-vitro activity, serial dilution test (MIC). The experiment is classed as cell-based, Trichophyton mentagrophytes. The following applies: Sabouraud's milieu d'epreuve, 20°C, 96 h, inoculum 5 x 10^4 Keime/ml, read-out: MHK-Werte in γ/ml Nährmedium Trichophyton mentagr. How it is done:
(§1) Versuchsbeschreibung: • Die in-vitro-Prüfungen wurden im Reihenverdünnungstest mit Keiminokula von durchschnittlich 5 x 10^4 Keimen/ml Substrat durchgeführt. Als Nährmedium dienten • a) für Dermatophyten und Schimmelpilze: Sabouraud's milieu d'epreuve • b) für Hefen: • Fleischextrakt-Traubenzucker-Bouillon.
(§2) Die Bebrütungstemperatur betrug 20°C, die Bebrütungsdauer lag bei 24 bis 96 Stunden bei Hefen und 96 Stunden bei Dermatophyten und Schimmelpilzen.

Experiment [2] relates to Aspergillus fumigatus. The experiment is described as above. The experiment is classed as cell-based. Particulars: Sabouraud's milieu d'epreuve, 20°C, 96 h, inoculum 5 x 10^4 Keime/ml, read-out: MHK-Werte in γ/ml Nährmedium Aspergillus fumigatus. How it is done: as §1, §2
Experiment [3] relates to Candida albicans. Described as above. The class given is cell-based. Particulars: Fleischextrakt-Traubenzucker-Bouillon, 20°C, 24 to 96 h, inoculum 5 x 10^4 Keime/ml, read-out: MHK-Werte in γ/ml Nährmedium Candida albicans. The procedure: as §1, §2
The subject of experiment [4] is Microsporum canis. Described as above. Particulars: Sabouraud's milieu d'epreuve, 20°C, 96 h, inoculum 5 x 10^4 Keime/ml, read-out: MHK-Werte in γ/ml Nährmedium Microsporum canis. The class given is cell-based. How it is done:
as §1, §2

In experiment [5] the test system is Torulopsis glabrata. Described as above. The experiment is classed as cell-based. The following applies: Nakaseomyces glabratus; Fleischextrakt-Traubenzucker-Bouillon, 20°C, 24 to 96 h, inoculum 5 x 10^4 Keime/ml; read-out: MHK-Werte in γ/ml Nährmedium Torulopsis glabrata. The procedure:
as §1, §2

Experiment [6] has as its system Candida-Zellen. In words: Antimycotic in-vivo activity (oral) in mouse candidosis. Also on record: species or system Mäuse vom Typ SPF-CF1. The following applies: for Wirkung: mice infected i.v. with Candida, oral 50 - 100 mg/kg one hour before and seven hours after infection, survivors on day 6 p.i.; for Wirkung compared with known compounds (A), (B), (C) and (D): mouse candidosis, oral 50 - 100 mg/kg. The procedure: Mäuse vom Typ SPF-CF1 wurden intravenös mit 1 - 2 x 10^6 logarithmisch wachsenden Candida-Zellen, die in physiologischer Kochsalzlösung suspendiert werden, infiziert. Eine Stunde vor und sieben Sunden nach der Infektion werden die Tiere mit jeweils 50 - 100 mg/kg Körpergewicht der Präparate oral behandelt.
Unbehandelte Tiere starben 3 bis 6 Tage post infektionem. Die Überlebensrate am 6. Tag post infektionem betrug bei unbehandelten Kontrolltieren etwa 5 %.
+++++ = sehr gute Wirkung = 90 % Überlebende am 6.Tag p.i. ++++ = gute Wirkung = 80 % Überlebende am 6.Tag p.i. +++ = Wirkung = 60 % Überlebende am 6.Tag p.i. ++ = schwache Wirkung = 40 % Überlebende am 6.Tag p.i. + = Spur Wirkung = unter 40 % Überlebende am 6.Tag p.i. k.W. = keine Wirkung

Experiment [7] relates to Trichophyton mentagrophytes. Briefly: Antimycotic in-vivo activity (local) in experimental guinea pig trichophytosis. Also on record: species or system Meerschweinchen; key: +++++: sehr gute Wirkung = keine Infektionszeichen am 12.-15.Tag p.i.; ++++: gute Wirkung = geringe Rötung, vereinzelt Schuppen; +++: Wirkung = Rötung, Schuppung, ohne Haarausfall; ++: schwache Wirkung = Rötung, Schuppung, Haarausfall; +: Spur Wirkung = flächiger Haarausfall, entzündliche Hautreaktion.

Setting [8] is: local treatment, trichophytosis model.
The mark [9] stands for this setting: local, 1 x daily from day 3 p.i., 15 %ige Lösung in Dimethylsulfoxid:Glycerin = 1:4, infection signs day 12-15 p.i.

Turning to `CC(CF)(CF)C(O)(COc1ccc(Cl)cc1Cl)Cn1ccnc1` (centres unmarked) [Beispiel 32], the MIC in experiment [1] was determined as 2 µg/mL (≈ 5.27 µM); in experiment [2] it was 32 µg/mL (≈ 84.4 µM); in experiment [3], 2 µg/mL (≈ 5.27 µM); in experiment [4], 16 µg/mL (≈ 42.2 µM); in experiment [5], 8 µg/mL (≈ 21.1 µM). The Wirkung result in experiment [6] was “++++ (gute Wirkung = 80 % Überlebende am 6.Tag p.i.)”; in experiment [7] (setting [8]), “Wirkung bis gute Wirkung”; in experiment [7] (setting [9]), “+++”. In addition, in experiment [6], the “Wirkung compared with known compounds (A), (B), (C) and (D)” value (from here on “Wirkung compared with known compounds”) is “bessere Wirkung”.

As to `Cc1cc(Cl)ccc1OCC(O)(Cn1cncn1)C(C)(C)CF` (centres unmarked) [Beispiel 8], the MIC is less than 1 µg/mL in experiment [1]; 4 µg/mL (≈ 11.7 µM) in experiment [2]; less than 1 µg/mL in experiment [3]; less than 1 µg/mL in experiment [4]; 2 µg/mL (≈ 5.85 µM) in experiment [5]. Besides, the values for the Wirkung entry in experiment [6], in experiment [7] (setting [8]) and in experiment [7] (setting [9]) were “+++ (Wirkung = 60 % Überlebende am 6.Tag p.i.)”, “Wirkung bis gute Wirkung” and “+++”, respectively. The “Wirkung compared with known compounds” value in experiment [6] is given as “bessere Wirkung”.

In the case of `CC(CF)(CF)C(O)(COc1ccc(Cl)cc1)Cn1cncn1` (centres unmarked) [Beispiel 13], the MIC in experiment [1] was less than 1 µg/mL; in experiment [2] it was 4 µg/mL (≈ 11.6 µM); in experiment [3], less than 1 µg/mL; in experiment [4] it was 2 µg/mL (≈ 5.78 µM); in experiment [5], 8 µg/mL (≈ 23.1 µM). For the same molecule, the Wirkung entry in experiment [6] is given as “+++++ (sehr gute Wirkung = 90 % Überlebende am 6.Tag p.i.)”; in experiment [7] (setting [8]), “Wirkung bis gute Wirkung”; in experiment [7] (setting [9]) it was “+++”. Besides, the “Wirkung compared with known compounds” value in experiment [6] is “bessere Wirkung”.

In the case of `CC(CF)(CF)C(O)(CCc1ccc(Cl)cc1Cl)Cn1cncn1` (centres unmarked) [Beispiel 27], the MIC in experiment [1] is less than 1 µg/mL; in experiment [2] it was 2 µg/mL (≈ 5.29 µM); in experiment [3], 2 µg/mL (≈ 5.29 µM); in experiment [4], 2 µg/mL (≈ 5.29 µM); in experiment [5], 4 µg/mL (≈ 10.6 µM). The Wirkung result in experiment [6] is “+++ (Wirkung = 60 % Überlebende am 6.Tag p.i.)”; in experiment [7] (setting [8]) it was “Wirkung bis gute Wirkung”; in experiment [7] (setting [9]), “+++”. The “Wirkung compared with known compounds” value in experiment [6] was “bessere Wirkung”.

`CC(CF)(CF)C(O)(COc1ccc(Cl)cc1Cl)Cn1cncn1` (centres unmarked) [Beispiel 14]: the MIC in experiment [1] was less than 1 µg/mL; in experiment [2] it was 4 µg/mL (≈ 10.5 µM); in experiment [3], less than 1 µg/mL; in experiment [4] it was less than 1 µg/mL; in experiment [5], 4 µg/mL (≈ 10.5 µM). For the same molecule, the values for the Wirkung result in experiment [6], in experiment [7] (setting [8]) and in experiment [7] (setting [9]) were “+++++ (sehr gute Wirkung = 90 % Überlebende am 6.Tag p.i.)”, “Wirkung bis gute Wirkung” and “++++”, respectively. In addition, the “Wirkung compared with known compounds” value in experiment [6] is listed as “bessere Wirkung”.

Regarding `C=CC(C)(C)C(O)(COc1ccc(-c2ccccc2)cc1)Cn1ccnc1` (centres unmarked) [Beispiel 5, 4-(4-Biphenylyloxymethyl)-3,3-dimethyl-4-hydroxy-5-(imidazol-1-yl)-1-penten], the MIC in experiment [1], in experiment [2], in experiment [3], in experiment [4] and in experiment [5] was less than 1 µg/mL in each case. The Wirkung result in experiment [6] is recorded as “++++ (gute Wirkung = 80 % Überlebende am 6.Tag p.i.)”; in experiment [7] (setting [8]), “Wirkung bis gute Wirkung”; in experiment [7] (setting [9]) it was “+++”. For the same molecule, in experiment [6], the “Wirkung compared with known compounds” value was “bessere Wirkung”.

As to `C=CC(C)(C)C(O)(COc1ccc(Cl)cc1)Cn1cncn1` (centres unmarked) [Beispiel 22], the MIC in experiment [1] was less than 1 µg/mL; in experiment [2] it was less than 1 µg/mL; in experiment [3], 2 µg/mL (≈ 6.21 µM); in experiment [4], 4 µg/mL (≈ 12.4 µM); in experiment [5], 16 µg/mL (≈ 49.7 µM). The Wirkung result in experiment [6] is on record as “+++++ (sehr gute Wirkung = 90 % Überlebende am 6.Tag p.i.)”; in experiment [7] (setting [9]), “++”. Besides, the “Wirkung compared with known compounds” value in experiment [6] is listed as “bessere Wirkung”.

Turning to `CC(CF)(CF)C(O)(COc1ccc(Cl)cc1)Cn1ccnc1` (centres unmarked) [Beispiel 31], the Wirkung result in experiment [6] is on record as “++++ (gute Wirkung = 80 % Überlebende am 6.Tag p.i.)”; in experiment [7] (setting [8]), “Wirkung bis gute Wirkung”; in experiment [7] (setting [9]), “+++”. In experiment [6], the “Wirkung compared with known compounds” value is “bessere Wirkung”.

`CC(C)(CF)C(O)(COc1ccc(F)cc1)Cn1cncn1` (centres unmarked) [Beispiel 1, 4-Fluor-2-(4-fluorphenoxymethyl)-3,3-dimethyl-1-(1,2,4-triazol-1-yl)-butan-2-ol]: the MIC in experiment [1] was 4 µg/mL (≈ 12.8 µM); in experiment [2] it was 8 µg/mL (≈ 25.7 µM); in experiment [3] it was less than 1 µg/mL; in experiment [4] it was 8 µg/mL (≈ 25.7 µM); in experiment [5] it was 16 µg/mL (≈ 51.4 µM). Further, the Wirkung entry in experiment [6] is recorded as “+++ (Wirkung = 60 % Überlebende am 6.Tag p.i.)”; in experiment [7] (setting [9]) it was “++”. In addition, in experiment [6], the “Wirkung compared with known compounds” value is “bessere Wirkung”.

As for `CC(C)(CF)C(O)(CCc1ccc(Cl)cc1Cl)Cn1cncn1` (centres unmarked) [Beispiel 26], the MIC is less than 1 µg/mL in experiment [1]; less than 1 µg/mL in experiment [2]; 4 µg/mL (≈ 11.1 µM) in experiment [3]; 2 µg/mL (≈ 5.55 µM) in experiment [4]; 8 µg/mL (≈ 22.2 µM) in experiment [5]. Also, the Wirkung result was “+++ (Wirkung = 60 % Überlebende am 6.Tag p.i.)” in experiment [6], “Wirkung bis gute Wirkung” in experiment [7] (setting [8]) and “+++” in experiment [7] (setting [9]). In experiment [6], the “Wirkung compared with known compounds” value is reported as “bessere Wirkung”.

Consider `CC(CF)(CF)C(O)(CCc1ccc(Cl)cc1)Cn1cncn1` (centres unmarked) [Beispiel 28], for which the MIC was less than 1 µg/mL in experiment [1]; less than 1 µg/mL in experiment [2]; 2 µg/mL (≈ 5.82 µM) in experiment [3]; 2 µg/mL (≈ 5.82 µM) in experiment [4]; 2 µg/mL (≈ 5.82 µM) in experiment [5]. Moreover, the Wirkung result in experiment [6] is on record as “++++ (gute Wirkung = 80 % Überlebende am 6.Tag p.i.)”; in experiment [7] (setting [8]) it was “Wirkung bis gute Wirkung”; in experiment [7] (setting [9]), “++++”. In experiment [6], the “Wirkung compared with known compounds” value was “bessere Wirkung”.

For the molecule `CC(C)(CF)C(O)(CCc1ccc(Cl)cc1)Cn1cncn1` (centres unmarked) [Beispiel 25], the MIC in experiment [1] was less than 1 µg/mL; in experiment [2], less than 1 µg/mL; in experiment [3], less than 1 µg/mL; in experiment [4] it was less than 1 µg/mL; in experiment [5], 2 µg/mL (≈ 6.14 µM). The Wirkung result in experiment [6] is given as “+++ (Wirkung = 60 % Überlebende am 6.Tag p.i.)”; in experiment [7] (setting [8]), “Wirkung bis gute Wirkung”; in experiment [7] (setting [9]) it was “++++”. The “Wirkung compared with known compounds” value in experiment [6] was “bessere Wirkung”.

On to `C=CC(C)(C)C(O)(COc1ccc(F)cc1)Cn1cncn1` (centres unmarked) [Beispiel 24], for which the MIC was less than 1 µg/mL in experiment [1]; 4 µg/mL (≈ 13.1 µM) in experiment [2]; 4 µg/mL (≈ 13.1 µM) in experiment [3]; 8 µg/mL (≈ 26.2 µM) in experiment [4]; 8 µg/mL (≈ 26.2 µM) in experiment [5]. The Wirkung entry in experiment [6] is “++ (schwache Wirkung = 40 % Überlebende am 6.Tag p.i.)”. In addition, the “Wirkung compared with known compounds” value in experiment [6] is “bessere Wirkung”.

Regarding `C=CC(C)(C)C(O)(COc1ccc(Cl)cc1Cl)Cn1cncn1` (centres unmarked) [Beispiel 23], the MIC was less than 1 µg/mL in experiment [1]; 4 µg/mL (≈ 11.2 µM) in experiment [2]; less than 1 µg/mL in experiment [3]; 8 µg/mL (≈ 22.5 µM) in experiment [4]; 4 µg/mL (≈ 11.2 µM) in experiment [5]. For the same molecule, the Wirkung entry in experiment [6] is “+ (Spur Wirkung = unter 40 % Überlebende am 6.Tag p.i.)”. In experiment [6], the “Wirkung compared with known compounds” value was “bessere Wirkung”.

For `C=CC(C)(C)C(O)(COc1ccc(-c2ccccc2)cc1)Cn1cncn1` (centres unmarked) [Beispiel 4, 4-(4-Biphenylyloxymethyl)-3,3-dimethyl-4-hydroxy-5-(1,2,4-triazol-1-yl)-1-penten], the MIC in experiment [1] was less than 1 µg/mL; in experiment [2], less than 1 µg/mL; in experiment [3], less than 1 µg/mL; in experiment [4], less than 1 µg/mL; in experiment [5], 32 µg/mL (≈ 88 µM). In experiment [6], the Wirkung entry is recorded as “+++++ (sehr gute Wirkung = 90 % Überlebende am 6.Tag p.i.)”. In addition, the “Wirkung compared with known compounds” value in experiment [6] is “bessere Wirkung”.
